We go through 23 molecules from patent publication US10669289B2, “Boronic acid derivatives” (MERCK PATENT GMBH, priority 2014, dated 2020).

Some results are limits rather than exact numbers.

A word on the IC50: it is the concentration at which inhibition is half-maximal.

For test [1], the target named is human constitutive proteasome (Beta5) (Homo sapiens (Human), UniProt P28074). Description: Determination of Beta5 activity (fluorescence intensity assay, Suc-LLVY-AMC). It counts as biochemical. The method, then:
Determination of Beta5 Activity:
Measurement of Beta5 inhibition is performed in 384 well format based on fluorescence intensity assay.
(§1) Purified human constitutive proteasome (1.25 nM) and serial diluted compounds in DMSO (range of concentrations from 30 μM to 15 pM) or controls are incubated for 20 minutes or 120 minutes (long incubation) at 25° C. in assay buffer containing 50 mM Tris pH 7.4, 0.03% SDS, 1 mM EDTA and 1% DMSO. The reaction is initiated by the addition of the fluorogenic peptide substrate, Suc-LLVY-AMC (Bachem 1-1395), at a concentration of 40 μM. After 60 minutes of incubation at 37° C., fluorescence intensity is measured at λex=350 nm and λem=450 nm with a fluorescence reader (Perkin Elmer Envision reader or equivalent).
(§2) Unless indicated otherwise the results are obtained after incubation for 20 minutes.

In test [2] the target is human immuno proteasome (LMP7) (Homo sapiens (Human), UniProt P28062). In words: Determination of LMP7 activity (fluorescence intensity assay, Suc-LLVY-AMC). It counts as biochemical. Here is the method: Determination of LMP7 Activity:
Measurement of LMP7 inhibition is performed in 384 well format based on fluorescence intensity assay.
as §1, with “immuno” for “constitutive”, “(0.25” for “(1.25”
as §2

Setting [3] is: LMP7 versus Beta5, long incubation (120 min).
[4] abbreviates: LMP7 versus Beta5, incubation for 20 minutes.

As to `C=CC(=O)N(CC(=O)N[C@@H](Cc1ccccc1)B(O)O)c1ccccc1F` [Compound No. 44, [(1R)-1-[[2-(2-fluoro-N-prop-2-enoyl-anilino)acetyl]amino]-2-phenyl-ethyl]boronic Acid], the IC50 was greater than 5000 nM in test [1] (long incubation (120 min)) and less than 50 nM in test [2] (long incubation (120 min)). Further, the “Selectivity LMP7 vs Beta5” value in test [2] (setting [3]) is given as “+++++ (Selectivity ≥ 150)”.
As for `C=CC(=O)N(CC)CC(=O)N[C@@H](Cc1ccc(F)cc1)B(O)O` [Compound No. 30, [(1R)-1-[[2-[ethyl(prop-2-enoyl)amino]acetyl]amino]-2-(4-fluorophenyl)ethyl]boronic Acid], the IC50 in test [1] (incubation for 20 minutes) is greater than 5000 nM; in test [2] (incubation for 20 minutes), 50 to 500 nM. In addition, the “Selectivity LMP7 vs Beta5” value in test [2] (setting [4]) was “+++ (70 ≤ 100)”.
Regarding `C=CC(=O)N(CC)CC(=O)N[C@@H](Cc1coc2ccccc12)B(O)O` [Compound No. 36, [(1R)-2-(benzofuran-3-yl)-1-[[2-[ethyl(prop-2-enoyl)amino]acetyl]-amino]ethyl]boronic Acid], the IC50 in test [1] (incubation for 20 minutes) is 50 to 500 nM; in test [2] (incubation for 20 minutes), less than 50 nM. Also, the “Selectivity LMP7 vs Beta5” value in test [2] (setting [4]) is given as “+++ (70 ≤ 100)”.
In the case of `C=CC(=O)N(CC(=O)N[C@@H](Cc1ccc(C)cc1C)B(O)O)C1CC1` [Compound No. 59, [(1R)-1-[[2-[cyclopropyl(prop-2-enoyl)amino]acetyl]amino]-2-(2,4-dimethylphenyl)ethyl]boronic Acid], the IC50 is greater than 5000 nM in test [1] (long incubation (120 min)) and less than 50 nM in test [2] (long incubation (120 min)). Besides, in test [2] (setting [3]), the “Selectivity LMP7 vs Beta5” value was “+++++ (Selectivity ≥ 150)”.
In the case of `C=CC(=O)N(CC(=O)N[C@@H](Cc1ccc(C)cc1C)B(O)O)c1ccc(F)cc1` [Compound No. 2, [(1R)-2-(2,4-dimethylphenyl)-1-[[2-(4-fluoro-N-prop-2-enoyl-anilino)acetyl]amino]ethyl]boronic Acid], the figures for the IC50 in test [1] (incubation for 20 minutes) and in test [2] (incubation for 20 minutes) were 500 to 5000 nM and less than 50 nM, respectively. Further, the “Selectivity LMP7 vs Beta5” value in test [2] (setting [4]) was “++++ (100 ≤ Selectivity < 150)”.
With `C=CC(=O)N(CC)CC(=O)N[C@@H](Cc1ccc(C(F)(F)F)cc1C)B(O)O` [Compound No. 64, [(1R)-1-[[2-[ethyl(prop-2-enoyl)amino]acetyl]amino]-2-[2-methyl-4-(trifluoromethyl)phenyl]ethyl]boronic Acid], the values for the IC50 in test [1] (long incubation (120 min)) and in test [2] (long incubation (120 min)) were greater than 5000 nM and 50 to 500 nM, respectively. Also, in test [2] (setting [3]), the “Selectivity LMP7 vs Beta5” value was “+++++ (Selectivity ≥ 150)”.
As for `C=CC(=O)N(c1ccccc1)[C@H](C)C(=O)N[C@@H](Cc1ccc(C)cc1C)B(O)O` [Compound No. 45, [(1R)-2-(2,4-dimethylphenyl)-1-[[(2R)-2-(N-prop-2-enoylanilino)propanoyl]amino]ethyl]boronic Acid], the IC50 in test [1] (long incubation (120 min)) was greater than 5000 nM; in test [2] (long incubation (120 min)) it was 50 to 500 nM. In addition, the “Selectivity LMP7 vs Beta5” value in test [2] (setting [3]) was “+++++ (Selectivity ≥ 150)”.
Molecule `C=CC(=O)N(CC(=O)N[C@@H](Cc1ccc(Cl)c(Cl)c1)B(O)O)C1CC1` [Compound No. 69, [(1R)-1-[[2-[cyclopropyl(prop-2-enoyl)amino]acetyl]amino]-2-(3,4-dichlorophenyl)ethyl]boronic Acid] yielded an IC50 in test [1] (long incubation (120 min)) of 500 to 5000 nM. The “Selectivity LMP7 vs Beta5” value in test [2] (setting [3]) is reported as “+++++ (Selectivity ≥ 150)”.
For `C#CC(=O)N(C)CC(=O)N[C@@H](Cc1ccc(C)cc1C)B(O)O` [Compound No. 11, [(1R)-2-(2,4-dimethylphenyl)-1-[[2-[methyl(prop-2-ynoyl)amino]-acetyl]amino]ethyl]boronic Acid], the IC50 in test [1] (incubation for 20 minutes) is 500 to 5000 nM; in test [2] (incubation for 20 minutes), less than 50 nM. In addition, the “Selectivity LMP7 vs Beta5” value in test [2] (setting [4]) is reported as “+++ (70 ≤ 100)”.
Take `C=CC(=O)N(CCC)CC(=O)N[C@@H](Cc1ccc(C)cc1C)B(O)O` [Compound No. 6, [(1R)-2-(2,4-dimethylphenyl)-1-[[2-[prop-2-enoyl(propyl)amino]-acetyl]amino]ethyl]boronic Acid]: the IC50 was greater than 5000 nM in test [1] (incubation for 20 minutes) and 50 to 500 nM in test [2] (incubation for 20 minutes). In addition, the “Selectivity LMP7 vs Beta5” value in test [2] (setting [4]) is “+++++ (Selectivity ≥ 150)”.
Consider `C=CC(=O)N(CC)CC(=O)N[C@@H](Cc1ccccc1)B(O)O` [Compound No. 37, [(1R)-1-[[2-[ethyl(prop-2-enoyl)amino]acetyl]amino]-2-phenyl-ethyl]boronic Acid], for which the figures for the IC50 in test [1] (incubation for 20 minutes) and in test [2] (incubation for 20 minutes) were greater than 5000 nM and 50 to 500 nM, respectively. In addition, the “Selectivity LMP7 vs Beta5” value in test [2] (setting [4]) is “+++ (70 ≤ 100)”.
In the case of `C=CC(=O)N(CC(=O)N[C@@H](Cc1ccc(Cl)cc1Cl)B(O)O)C1CC1` [Compound No. 70, [(1R)-1-[[2-[cyclopropyl(prop-2-enoyl)amino]acetyl]amino]-2-(2,4-dichlorophenyl)ethyl]boronic Acid], the IC50 is greater than 5000 nM in test [1] (long incubation (120 min)) and less than 50 nM in test [2] (long incubation (120 min)). In addition, the “Selectivity LMP7 vs Beta5” value in test [2] (setting [3]) is listed as “+++++ (Selectivity ≥ 150)”.
Regarding `C=CC(=O)N(C)[C@@H](C)C(=O)N[C@@H](Cc1ccc(C)cc1C)B(O)O` [Compound No. 49, [(1R)-2-(2,4-dimethylphenyl)-1-[[(2S)-2-[methyl(prop-2-enoyl)amino]propanoyl]amino]ethyl]boronic Acid], the results for the IC50 in test [1] (long incubation (120 min)) and in test [2] (long incubation (120 min)) were greater than 5000 nM and 50 to 500 nM, respectively. In addition, in test [2] (setting [3]), the “Selectivity LMP7 vs Beta5” value is reported as “++++ (100 ≤ Selectivity < 150)”.
Turning to `C=CC(=O)N1c2ccccc2CC1C(=O)N[C@@H](Cc1ccc(C)cc1C)B(O)O` (stereo partly drawn) [Compound No. 8, [(1R)-2-(2,4-dimethylphenyl)-1-[(1-prop-2-enoylindoline-2-carbonyl)amino]ethyl]boronic Acid], the IC50 was 500 to 5000 nM in test [1] (incubation for 20 minutes) and less than 50 nM in test [2] (incubation for 20 minutes). The “Selectivity LMP7 vs Beta5” value in test [2] (setting [4]) is listed as “+++ (70 ≤ 100)”.
`C=CC(=O)N(CC(=O)N[C@@H](Cc1cccs1)B(O)O)c1ccc(Br)cc1` [Compound No. 104, [(1R)-1-[[2-(4-bromo-N-prop-2-enoyl-anilino)acetyl]amino]-2-(2-thienyl)ethyl]boronic Acid]: the figures for the IC50 in test [1] (long incubation (120 min)) and in test [2] (long incubation (120 min)) were 500 to 5000 nM and less than 50 nM, respectively. Besides, the “Selectivity LMP7 vs Beta5” value in test [2] (setting [3]) is recorded as “+++++ (Selectivity ≥ 150)”.
`C=CC(=O)N(CC(=O)NC(Cc1ccsc1)B(O)O)c1ccccc1CC` (centres unmarked) [Compound No. 93, [1-[[2-(2-ethyl-N-prop-2-enoyl-anilino)acetyl]amino]-2-(3-thienyl)ethyl]boronic Acid]: the IC50 in test [1] (long incubation (120 min)) was greater than 5000 nM; in test [2] (long incubation (120 min)) it was 50 to 500 nM. Also, the “Selectivity LMP7 vs Beta5” value in test [2] (setting [3]) is on record as “+++++ (Selectivity ≥ 150)”.
For the molecule `C=CC(=O)N(CC(=O)N[C@@H](Cc1ccc(C)c(C)c1)B(O)O)CC(F)(F)F` [Compound No. 61, [(1R)-2-(3,4-dimethylphenyl)-1-[[2-[prop-2-enoyl(2,2,2-trifluoroethyl)amino]acetyl]amino]ethyl]boronic Acid], the IC50 in test [1] (long incubation (120 min)) was greater than 5000 nM; in test [2] (long incubation (120 min)), less than 50 nM. For the same molecule, the “Selectivity LMP7 vs Beta5” value in test [2] (setting [3]) was “+++++ (Selectivity ≥ 150)”.
As for `C=CC(=O)N1CCCC[C@H]1C(=O)N[C@@H](Cc1ccc(C)cc1C)B(O)O` [Compound No. 39, [(1R)-2-(2,4-dimethylphenyl)-1-[[(2S)-1-prop-2-enoylpiperidine-2-carbonyl]amino]ethyl]boronic Acid], the IC50 in test [1] (long incubation (120 min)) is greater than 5000 nM; in test [2] (long incubation (120 min)), 500 to 5000 nM. Besides, the “Selectivity LMP7 vs Beta5” value in test [2] (setting [3]) is listed as “++ (50 ≤ Selectivity < 70)”.
On to `C=CC(=O)N(c1ccccc1)[C@@H](C)C(=O)N[C@@H](Cc1ccc(C)c(C)c1)B(O)O` [Compound No. 48, [(1R)-2-(3,4-dimethylphenyl)-1-[[(2S)-2-(N-prop-2-enoylanilino)propanoyl]amino]ethyl]boronic Acid], for which the values for the IC50 in test [1] (incubation for 20 minutes) and in test [2] (incubation for 20 minutes) were greater than 5000 nM and 500 to 5000 nM, respectively. Further, the “Selectivity LMP7 vs Beta5” value in test [2] (setting [4]) is reported as “++ (50 ≤ Selectivity < 70)”.
On to `C=CC(=O)N(CC(=O)N[C@@H](CCc1ccccc1)B(O)O)c1ccccc1F` [Compound No. 101, [(1R)-1-[[2-(2-fluoro-N-prop-2-enoyl-anilino)acetyl]amino]-3-phenyl-propyl]boronic acid], for which the IC50 in test [1] (long incubation (120 min)) was greater than 5000 nM; in test [2] (long incubation (120 min)), less than 50 nM. Moreover, the “Selectivity LMP7 vs Beta5” value in test [2] (setting [3]) was “+++++ (Selectivity ≥ 150)”.
For `C=CC(=O)N(CC(=O)N[C@@H](Cc1ccsc1)B(O)O)c1cccc(C(=O)N(C)C)c1` [Compound No. 102, [(1R)-1-[[2-[3-(dimethylcarbamoyl)-N-prop-2-enoyl-anilino]acetyl]amino]-2-(3-thienyl)ethyl]boronic Acid], in that order: 500 to 5000 nM, less than 50 nM and “++ (50 ≤ Selectivity < 70)”.
On to `CC#CC(=O)N(CC)CC(=O)N[C@@H](Cc1ccc(C)cc1C)B(O)O` [Compound No. 19, [(1R)-1-[[2-[but-2-ynoyl(ethyl)amino]acetyl]amino]-2-(2,4-dimethylphenyl)ethyl]boronic Acid], for which the figures for the half-inhibitory concentration (IC50) in test [1] (incubation for 20 minutes) and in test [2] (incubation for 20 minutes) were 500 to 5000 nM and less than 50 nM, respectively. For the same molecule, the “Selectivity LMP7 vs Beta5” value in test [2] (setting [4]) is given as “+++ (70 ≤ 100)”.
For `C=CC(=O)N(CC(=O)N[C@@H](Cc1ccc(C)c(C)c1)B(O)O)C1CC1` [Compound No. 71, [(1R)-1-[[2-[cyclopropyl(prop-2-enoyl)amino]acetyl]amino]-2-(3,4-dimethylphenyl)ethyl]boronic Acid], the results for the IC50 in test [1] (long incubation (120 min)) and in test [2] (long incubation (120 min)) were greater than 5000 nM and less than 50 nM, respectively. Also, in test [2] (setting [3]), the “Selectivity LMP7 vs Beta5” value was “+++++ (Selectivity ≥ 150)”.
